According to the supplement of paper PMC10307832:

Legend:
Assay in all cases: relative viability (nuclei count vs DMSO), 5 days (fraction); higher = more cells survive
[1] = compound: C1CC2=C(C1)C=C(C=C2)OC3=NC(=C4C(=N3)N(C=N4)CC5=CC=C(C=C5)C6=CC=CC=C6)N[C@@H](CC7=CC=CC=C7)CO [QS11] + N=C(N)NC(=N)NCCc1ccccc1 [Phenformin] (partner 250 µM)
How it was run: (§1)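 Each reported value is a median over duplicate plates. It expresses relative viability: treated-well nuclei count divided by vehicle-well nuclei count. Lung cancer cell lines in 1536-well plates were dosed by pin tool a day after seeding, alone with one drug or with a fixed anchor-drug dose plus five library-drug doses (not always all listed) in √10 steps, and nuclei were counted after 5 days.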

[2] = compound: CC1=C(C=C(C=C1)NC(=O)C2=CC(=CC=C2)C(C)(C)C#N)NC3=CC4=C(C=C3)N=CN(C4=O)C [AZ628] + CCNC(=O)c1noc(-c2cc(C(C)C)c(O)cc2O)c1-c1ccc(CN2CCOCC2)cc1 [Luminespib] (partner 0.01 µM)
How it was run: as §1

[3] = compound: CC1=C(C=C(C=C1)NC(=O)C2=CC(=CC=C2)C(C)(C)C#N)NC3=CC4=C(C=C3)N=CN(C4=O)C [AZ628] + C[C@@H](Oc1cc(-c2cnn(C3CCNCC3)c2)cnc1N)c1c(Cl)ccc(F)c1Cl [Crizotinib] (partner 1 µM)
How it was run: as §1

[4] = compound: C[As](C)SC[C@H](NC(=O)CC[C@H](N)C(=O)O)C(=O)NCC(=O)O [Darinaparsin] + CS(=O)(=O)CCNCc1ccc(-c2ccc3ncnc(Nc4ccc(OCc5cccc(F)c5)c(Cl)c4)c3c2)o1 [Lapatinib] (partner 2 µM)
How it was run: as §1

Cell Line	relative viability ([1]; first compound 0.08 µM)	relative viability ([1]; first compound 0.253 µM)	relative viability ([1]; first compound 0.8 µM)	relative viability ([1]; first compound 2.53 µM)	relative viability ([1]; first compound 8 µM)	relative viability ([2]; first compound 0.08 µM)	relative viability ([2]; first compound 0.253 µM)	relative viability ([2]; first compound 0.8 µM)	relative viability ([2]; first compound 2.53 µM)	relative viability ([2]; first compound 8 µM)	relative viability ([3]; first compound 0.08 µM)	relative viability ([3]; first compound 0.253 µM)	relative viability ([3]; first compound 0.8 µM)	relative viability ([3]; first compound 2.53 µM)	relative viability ([3]; first compound 8 µM)	relative viability ([4]; first compound 0.08 µM)	relative viability ([4]; first compound 0.8 µM)	relative viability ([4]; first compound 2.53 µM)	relative viability ([4]; first compound 8 µM)
NCI-H2009	0.466	0.498	0.459	0.419	0.416	0.967	0.957	0.894	0.966	0.38	0.848	0.722	0.524	0.703	0.292	0.992	0.93	0.888	0.915
SK-LU-1	0.527	0.557	0.587	0.404	0.456	–	0.181	0.231	0.211	0.169	0.699	0.874	0.778	0.792	0.885	1.08	0.802	0.574	0.932
RERF-LC-KJ	0.407	0.41	0.438	0.378	0.315	1.21	1.23	1.43	1.08	1.19	0.779	0.817	0.868	0.85	0.726	1.11	0.849	0.762	1.03
NCI-H322M	0.784	0.824	0.803	0.877	1.06	0.924	0.815	0.935	0.79	0.549	0.819	1.04	1.01	0.795	0.856	0.611	0.603	0.52	0.603
LK-2	0.243	0.76	0.524	0.426	0.411	0.224	0.205	0.206	0.187	0.16	0.192	0.197	0.244	0.203	0.224	0.978	0.622	0.926	1.05
SK-MES-1	0.764	0.678	0.663	0.712	0.711	0.848	0.72	0.574	0.598	0.386	0.953	0.93	1.08	1.15	0.882	0.539	0.444	0.439	0.519
NCI-H1299	–	–	–	–	–	–	–	–	–	–	1.1	1.06	1.16	1.16	0.651	1.09	0.955	0.958	0.853
NCI-H2228	0.259	0.325	0.407	0.479	0.452	0.119	0.133	0.18	0.195	0.14	0.372	0.486	0.5	0.41	0.531	1.46	0.869	0.685	1.22
NCI-H1792	0.219	–	0.338	0.268	0.178	0.528	0.372	0.334	0.435	0.192	1.08	0.916	0.771	0.881	0.633	1.26	0.83	0.696	0.927
LOU-NH91	0.685	0.62	0.657	0.67	0.663	0.299	0.396	0.332	0.308	0.293	0.721	0.755	0.755	0.731	0.606	0.848	0.647	0.705	0.795
IA-LM	–	–	–	–	–	–	–	–	–	–	0.971	0.749	0.678	0.829	0.18	1.25	0.658	1.32	1.07
SW 900	0.54	0.578	0.709	0.417	0.402	0.18	0.188	0.156	0.152	0.176	–	–	–	–	–	–	–	–	–
LU99A	0.768	0.975	1.07	0.827	0.869	0.306	0.283	0.23	0.207	0.183	0.601	0.505	0.586	0.566	0.286	1.03	0.942	0.923	1.22
NCI-H661	0.221	0.297	0.273	0.297	0.261	1.03	0.941	0.912	0.961	0.731	0.975	–	–	1.1	1.01	0.509	0.584	0.513	0.511
EBC-1	–	–	–	–	–	–	–	–	–	–	0.201	0.212	0.169	0.197	0.168	0.2	0.211	0.246	0.223
NCI-H3122	0.376	0.399	–	0.384	0.322	0.0933	0.0771	0.11	0.0973	0.0958	0.349	0.252	0.29	0.238	0.234	1.16	0.986	1.03	1.14
LC-2-ad	0.535	0.482	0.535	0.551	0.599	1.1	1.08	0.458	1.13	0.926	0.503	0.457	0.448	0.44	0.505	1.14	0.863	0.892	1.08
HCC-78	0.788	0.722	0.725	0.871	0.798	–	–	–	–	–	0.404	0.403	0.38	0.413	0.4	0.76	0.58	0.704	0.885
SW 1573	0.407	0.374	0.413	0.442	0.346	0.315	0.258	0.16	0.189	0.171	0.664	0.587	0.707	0.598	0.425	1.1	1.1	1.09	1.22
NCI-H358	0.297	0.378	0.412	0.5	0.507	0.285	0.279	0.273	0.311	0.167	0.393	0.435	0.583	0.51	0.32	0.463	0.412	0.422	0.52

Cell Line	relative viability ([1]; first compound 0.08 µM)	relative viability ([1]; first compound 0.253 µM)	relative viability ([1]; first compound 0.8 µM)	relative viability ([1]; first compound 2.53 µM)	relative viability ([1]; first compound 8 µM)	relative viability ([2]; first compound 0.08 µM)	relative viability ([2]; first compound 0.253 µM)	relative viability ([2]; first compound 0.8 µM)	relative viability ([2]; first compound 2.53 µM)	relative viability ([2]; first compound 8 µM)	relative viability ([3]; first compound 0.08 µM)	relative viability ([3]; first compound 0.253 µM)	relative viability ([3]; first compound 0.8 µM)	relative viability ([3]; first compound 2.53 µM)	relative viability ([3]; first compound 8 µM)	relative viability ([4]; first compound 0.08 µM)	relative viability ([4]; first compound 0.8 µM)	relative viability ([4]; first compound 2.53 µM)	relative viability ([4]; first compound 8 µM)
ChaGo-K-1	0.366	0.561	0.542	0.588	0.421	0.546	0.642	0.456	0.504	0.461	1.18	–	1.15	1.11	1.16	–	–	–	–
201T	0.468	0.399	0.4	0.414	0.376	1.07	1.02	1.14	1.05	1.14	1.05	0.999	1.06	1.06	1.08	1.05	1.03	1.02	0.76
HCC-44	0.208	0.206	0.25	0.158	0.157	1.29	1.08	1.13	0.945	0.767	0.801	0.857	0.961	0.912	0.721	1.24	1.04	0.903	1.08
EMC-BAC-2	0.519	0.579	0.53	0.463	0.44	1.22	1.03	1.16	1.07	1.12	0.809	0.759	0.76	0.795	0.874	0.858	0.924	0.949	1.05
NCI-H2405	0.361	0.443	0.372	0.45	0.399	0.366	0.425	0.411	0.365	0.355	0.478	0.66	0.522	0.588	0.568	1.04	1.01	1.04	1.1
NCI-H2342	0.632	0.62	0.638	0.599	0.615	0.763	0.865	0.736	0.821	0.825	–	–	–	–	–	–	–	–	–
HOP-62	0.677	0.743	0.657	0.497	0.669	0.977	0.865	0.759	0.826	0.475	1.06	0.834	0.926	1.16	0.412	1.12	1.01	0.97	1.29
NCI-H1651	0.377	0.384	0.305	0.374	0.343	0.92	0.825	0.919	0.955	0.61	0.864	0.87	0.863	0.902	0.925	1.01	0.881	0.759	1.09
NCI-H2085	0.707	0.681	0.671	0.726	0.844	0.538	0.41	0.468	0.503	0.33	0.84	0.928	0.912	0.911	0.69	0.809	0.697	0.776	0.916
NCI-H2023	0.304	0.473	0.411	0.457	0.459	0.818	0.76	0.666	0.65	0.653	0.638	0.663	0.622	0.635	0.478	1	0.85	0.63	1.2
NCI-H1395	0.397	0.437	0.425	0.457	0.453	0.701	0.763	0.688	0.808	0.686	–	–	–	–	–	1.3	0.949	1.03	1.37
NCI-H522	0.689	0.656	0.621	0.705	0.677	1.33	1.15	1.16	1.29	0.821	–	–	–	–	–	–	–	–	–
NCI-H1703	–	–	–	–	–	–	–	–	–	–	0.538	0.672	0.405	0.204	0.192	–	1.18	1.29	1.18
NCI-H441	0.861	0.958	0.71	1.01	0.884	0.33	0.342	0.345	0.469	0.241	0.809	0.569	0.541	0.694	0.78	–	–	–	–
NCI-H1793	0.304	0.386	0.355	0.345	0.376	0.182	0.19	0.202	0.132	0.173	–	–	–	–	–	0.675	0.632	0.902	0.916
Calu-6	–	–	–	–	–	–	–	–	–	–	0.753	0.678	0.605	0.577	0.153	1.45	1.14	1.09	1.06
HCC-366	0.607	0.613	–	0.589	0.504	–	–	–	–	–	0.519	0.627	0.308	0.427	0.236	1.63	0.95	1.03	1.67
LCLC-103H	0.315	0.403	0.341	0.342	0.382	0.971	0.879	0.974	0.94	0.965	1.13	1.08	1.11	1.09	1.01	–	–	–	–
NCI-H1623	0.497	0.576	0.489	0.548	0.602	0.493	0.432	0.393	0.358	0.395	–	–	–	–	–	–	–	–	–
A549	0.115	0.256	0.154	0.125	0.197	–	–	–	–	–	0.702	0.728	0.697	0.712	0.382	1.45	1.05	1.01	1.06
